Measured values: US20160136286A1, “DRUG DELIVERY COMPOSITION” (The Queen's University of Belfast, priority 2008, published 2016)

Experiments:
[1] = solution in acetonitrile exposed to alternating periods of light and dark (365 nm), progress of drug liberation monitored; type: physicochemical; conditions: six alternating periods (FIG. 2)
From the text: A solution of 2 in acetonitrile was then exposed to alternating periods of light and dark using the same conditions for light conditions as previously. […] The dose of liberated drug thus correlates with the duration of exposure to light. In this example, six periods of dosing and nondosing are alternated; this can be extended to any discrete dose required, in principle to the level of control provided from the light source, which includes molecule-scale control from low bursts of light deliverable from a laser source.

[2] = irradiation of a solution of the conjugate with 365 nm UV-A radiation, followed by UV-visible spectra; type: physicochemical; conditions: solution irradiated with 365 nm UV-A; judged from isosbestic points at 231 and 262 nm (FIG. 1)
From the text: The behaviour of 2-4 is characterised by irradiating a solution using 365 nm UV-A radiation. As the photochemical reaction proceeds, the UV-visible spectrum of the reaction mixture changes (FIG. 1), reflecting the formation of 1 and drug and the consumption of conjugate. […] The identity of reaction products was verified by chromatographic separation, followed by spectroscopic analysis to be solely the corresponding drug and 1. The reaction proceeded in an analogous fashion to related nondrug examples 12 and all three conjugates 2-4 behaved similarly.

| Structure (SMILES) | drug liberation reaction under light conditions ([1]; 365 nm light periods) | liberation of drug in dark conditions ([1]; dark periods) | side products of the photochemical reaction [2] |
| --- | --- | --- | --- |
| COc1cc(OC)cc(C(OC(=O)c2ccccc2OC(C)=O)C(=O)c2ccccc2)c1 (stereo not drawn) [Compound 2] | proceeds | stopped completely |  |
| COc1cc(OC)cc(C(OC(=O)C(C)c2ccc(CC(C)C)cc2)C(=O)c2ccccc2)c1 (stereo not drawn) [Compound 3] |  |  | no side products |
